Where two headings read alike, the source gives them in different places.
Assays:
[1] = tested on: Wnt reporter (TCF/LEF1 promoter); assay: HEK STF293 Wnt reporter (TOPFlash) luciferase assay, Steady Glo normalised to Cell Titer; format: cell-based, human
Description: All compounds were tested using the human cell line HEK STF293. This cell line carries a Wnt reporter (TCF/LEF1 promoter), which drives expression of the firefly luciferase protein. The level of Wnt activity is directly correlated with the level of luciferase activity (determined using a simple assay). Compounds that inhibit Wnt signaling by reducing luciferase activity in these two cell lines are further tested biochemically. […] Compounds were further tested in a Viability assay using Wnt-dependent HCT116 cell line. Compounds were prepared as 10 mM stocks for each compound in DMSO. Dilutions were prepared in a 96-well plate in DMSO. The stock dilutions are as follows: 10 mM, 1 mM, 100 μM, 10 μM, 100 nM, and 10 nM. Plates were sealed and stored at −20° C. […] On the first day, Wnt3a-conditioned media (1:1) were added along with diluted compounds (1:100). […] The final concentrations should therefore be 100 μM, 10 μM, 1 μM, 100 nM, 10 nM, and 1 nM. On the second day, the media was removed and 75 μL of Passive Lysis Buffer (Promega) is added to each well. The plate was shaken at 130 rpm for 15 minutes. For the Steady Glo assay, 45 μL of the lysis was removed and added to a white 96-well plate containing 45 μL/well of Steady Glo solution (Promega). For the Cell Titer assay, 25 μL of the lysis was transferred to a white 96-well plate containing 25 μL/well of Cell Titer solution (Promega). Both Steady Glo and Cell Titer assays were read with a luminescence plate reader. When determining EC50, the Steady Glo values were divided by the Cell Titer values to normalize for cell number. All compounds were tested using the human cell line HEK STF293. This cell line carries a Wnt reporter (TCF/LEF1 promoter), which drives expression of the firefly luciferase protein. The level of Wnt activity is directly correlated with the level of luciferase activity (determined using a simple assay). Compounds that inhibit Wnt signaling by reducing luciferase activity in these two cell lines are further tested biochemically. […] Compounds were further tested in a Viability assay using Wnt-dependent HCT116 cell line. Compounds were prepared as 10 mM stocks for each compound in DMSO. Dilutions were prepared in a 96-well plate in DMSO. The stock dilutions are as follows: 10 mM, 1 mM, 100 μM, 10 μM, 100 nM, and 10 nM. Plates were sealed and stored at −20° C. […] On the first day, Wnt3a-conditioned media (1:1) were added along with diluted compounds (1:100). […] The final concentrations should therefore be 100 μM, 10 μM, 1 μM, 100 nM, 10 nM, and 1 nM. On the second day, the media was removed and 75 μL of Passive Lysis Buffer (Promega) is added to each well. The plate was shaken at 130 rpm for 15 minutes. For the Steady Glo assay, 45 μL of the lysis was removed and added to a white 96-well plate containing 45 μL/well of Steady Glo solution (Promega). For the Cell Titer assay, 25 μL of the lysis was transferred to a white 96-well plate containing 25 μL/well of Cell Titer solution (Promega). Both Steady Glo and Cell Titer assays were read with a luminescence plate reader. When determining EC50, the Steady Glo values were divided by the Cell Titer values to normalize for cell number. All compounds were tested using the human cell line HEK STF293. This cell line carries a Wnt reporter (TCF/LEF1 promoter), which drives expression of the firefly luciferase protein. The level of Wnt activity is directly correlated with the level of luciferase activity (determined using a simple assay). Compounds that inhibit Wnt signaling by reducing luciferase activity in these two cell lines are further tested biochemically. […] Compounds were further tested in a Viability assay using Wnt-dependent HCT116 cell line. Compounds were prepared as 10 mM stocks for each compound in DMSO. Dilutions were prepared in a 96-well plate in DMSO. The stock dilutions are as follows: 10 mM, 1 mM, 100 μM, 10 μM, 100 nM, and 10 nM. Plates were sealed and stored at −20° C. […]

[2] = tested on: Wnt-dependent HCT116 cell line; assay: Viability assay using Wnt-dependent HCT116 cell line (Cell Titer Glo); format: cell-based
Description: All compounds were tested using the human cell line HEK STF293. This cell line carries a Wnt reporter (TCF/LEF1 promoter), which drives expression of the firefly luciferase protein. The level of Wnt activity is directly correlated with the level of luciferase activity (determined using a simple assay). Compounds that inhibit Wnt signaling by reducing luciferase activity in these two cell lines are further tested biochemically. […] Compounds were further tested in a Viability assay using Wnt-dependent HCT116 cell line. HEK293 cells were seeded in a 6-well plate at approximately 8.0×10^5 cells (2 mL per well). On the first day, Wnt3a-conditioned media (1:1) and compounds (1:100) were added to the plated cells. The final concentrations of compounds were 1 μM, 500 nM, and 100 nM. Vehicle (DMSO) and a Wnt3a-conditioned media plus Vehicle samples were also prepared as controls. Lysates were collected (with non-denaturing lysis buffer) after 24 hours incubation, and protein concentrations determined by Bradford Assay. Immunoblotting with an anti-beta-catenin antibody (equivalent amounts of protein/lane for each condition) were subsequently performed to determine beta-catenin levels. HCT116 cells were seeded at 2,500 cells/well in a 96-well dish (Volume: 100 μL/well). On the second day, the 10 mM stock solution of each test compound was thawed at room temperature. Dilutions of the test compound were prepared in DMSO in a V-bottom 96-well plate. The stock compound solution, DMSO-diluted compound solutions, and DMSO were further diluted 500-fold in cell culture media, and 100 μL of the compound- or DMSO-containing cell culture media was added to each well of the cells. […] The final DMSO concentration was 0.1% in all wells. On the fifth day, 150 μL of media was removed from each well. 50 μL/well Cell Titer Glo reagent (Promega) was added to each well. The plate was shaken at 130 rpm for 15 minutes at room temperature, and the cell viability was determined using a luminescence plate reader. All compounds were tested using the human cell line HEK STF293. This cell line carries a Wnt reporter (TCF/LEF1 promoter), which drives expression of the firefly luciferase protein. The level of Wnt activity is directly correlated with the level of luciferase activity (determined using a simple assay). Compounds that inhibit Wnt signaling by reducing luciferase activity in these two cell lines are further tested biochemically. […] Compounds were further tested in a Viability assay using Wnt-dependent HCT116 cell line. HEK293 cells were seeded in a 6-well plate at approximately 8.0×10^5 cells (2 mL per well). On the first day, Wnt3a-conditioned media (1:1) and compounds (1:100) were added to the plated cells. The final concentrations of compounds were 1 μM, 500 nM, and 100 nM. Vehicle (DMSO) and a Wnt3a-conditioned media plus Vehicle samples were also prepared as controls. Lysates were collected (with non-denaturing lysis buffer) after 24 hours incubation, and protein concentrations determined by Bradford Assay. Immunoblotting with an anti-beta-catenin antibody (equivalent amounts of protein/lane for each condition) were subsequently performed to determine beta-catenin levels. HCT116 cells were seeded at 2,500 cells/well in a 96-well dish (Volume: 100 μL/well). On the second day, the 10 mM stock solution of each test compound was thawed at room temperature. Dilutions of the test compound were prepared in DMSO in a V-bottom 96-well plate. The stock compound solution, DMSO-diluted compound solutions, and DMSO were further diluted 500-fold in cell culture media, and 100 μL of the compound- or DMSO-containing cell culture media was added to each well of the cells. […] The final DMSO concentration was 0.1% in all wells. On the fifth day, 150 μL of media was removed from each well. 50 μL/well Cell Titer Glo reagent (Promega) was added to each well. The plate was shaken at 130 rpm for 15 minutes at room temperature, and the cell viability was determined using a luminescence plate reader. […]

[3] = Homo sapiens, STF/293, Examples for Formulae (IV), (V), (VI), and (VII), HEK STF293 cells, Wnt3a-conditioned media, read-out: TOPFlash IC50 category
[4] = Homo sapiens, HCT-116, Examples for Formulae (IV), (V), (VI), and (VII), HCT116 cells, read-out: Viability IC50 category
[5] = Homo sapiens, STF/293, read-out: TOPFlash IC50 category
[6] = Homo sapiens, HCT-116, read-out: Viability IC50 category
[7] = Examples for Formulae (IV), (V), (VI), and (VII), HEK STF293 cells, Wnt3a-conditioned media, read-out: TOPFlash IC50 category
[8] = Examples for Formulae (IV), (V), (VI), and (VII), HCT116 cells, read-out: Viability IC50 category
[9] = Homo sapiens, STF/293, Examples for Formulae (I), (II), and (III), HEK STF293 cells, Wnt3a-conditioned media, read-out: TOPFlash IC50 category
[10] = Homo sapiens, HCT-116, Examples for Formulae (I), (II), and (III), HCT116 cells, read-out: Viability IC50 category

CCS(=O)(=O)N(C)c1nc(-c2ccc(F)cc2)c(C(=O)Nc2nc(-c3ccccn3)cs2)o1 [Example 57]
IC50 [1, 3]: < 200 nM | IC50 [2, 4]: < 200 nM

CC(C)(C)c1nc(-c2ccc(F)cc2)c(C(=O)Nc2nc(-c3ccccn3)cs2)o1 [Example 23]
IC50 [1, 5]: 200 to 500 nM | IC50 [2, 6]: 200 to 500 nM

CN(c1nc(-c2ccc(Cl)cc2)c(C(=O)Nc2nc(-c3ccccn3)cs2)o1)S(=O)(=O)c1ccc(C(F)(F)F)cc1 [Example 73]
IC50 [1, 7]: < 200 nM | IC50 [2, 8]: < 200 nM

Cc1nn(-c2ccccc2Cl)c(C(F)F)c1C(=O)Nc1nc(-c2ccccn2)cs1 [Example 12]
IC50 [1, 9]: 200 to 500 nM | IC50 [2, 10]: 500 to 1000 nM

CN(c1ncc(C(=O)O)o1)S(=O)(=O)c1ccc(C(F)(F)F)cc1 [Example 43]
IC50 [1, 7]: < 200 nM | IC50 [2, 8]: < 200 nM

Cc1onc(-c2ccccc2Cl)c1C(=O)Nc1nc(-c2ccccn2)cs1 [Example 28]
IC50 [1, 5]: 200 to 500 nM | IC50 [2, 6]: 200 to 500 nM

Cc1onc(-c2cccc(F)c2F)c1C(=O)Nc1nc(-c2ccccn2)cs1 [Example 19]
IC50 [1, 3]: 200 to 500 nM | IC50 [2, 4]: 200 to 500 nM

Cc1onc(-c2c(Cl)cccc2Cl)c1C(=O)Nc1nc(-c2ccccn2)cs1 [Example 29]
IC50 [1, 5]: < 200 nM | IC50 [2, 6]: < 200 nM

COc1ccc(Cn2cc(C(=O)Nc3nc(-c4ccccn4)cs3)cn2)cc1 [Example 3]
IC50 [1, 9]: 1000 to 10000 nM | IC50 [2, 10]: 1000 to 10000 nM

Cc1onc(-c2ccc(OC(F)(F)F)cc2)c1C(=O)Nc1nc(-c2ccccn2)cs1 [Example 26]
IC50 [1, 3]: 200 to 500 nM | IC50 [2, 4]: < 200 nM

Cc1nc(-c2ccccc2F)c(C(=O)Nc2nc(-c3ccccn3)cs2)o1 [Example 10]
IC50 [1, 3]: < 200 nM | IC50 [2, 4]: 200 to 500 nM

Cc1nc(N(C)S(=O)(=O)c2ccc(Cl)cc2)oc1C(=O)Nc1nc(-c2ccccn2)cs1 [Example 52]
IC50 [1, 3]: 500 to 1000 nM | IC50 [2, 4]: 500 to 1000 nM

Cc1nc(N(C)S(=O)(=O)c2cccc(Cl)c2)oc1C(=O)Nc1nc(-c2ccccn2)cs1 [Example 51]
IC50 [1, 3]: 500 to 1000 nM | IC50 [2, 4]: 500 to 1000 nM
